{"source": "patent US4410514A", "about": "“GnRH Agonists” (The Salk Institute for Biological Studies, priority 1982, dated 1983)", "tested_on": "release of LH by the anterior pituitary in fish", "assay": "in vivo salmon assay, radioimmunoassay for LH level in blood", "settings": "salmon of about 2 kg, about 10 μg injected per fish, blood taken about 2 hours after injection, same amount of mammalian GnRH as comparator", "protocol": "The peptide is assayed in vivo using salmon having an average weight of about 2 kg, and each fish is injected with about 10 μg. Additional fish are injected with the same amount of mammalian GnRH. Both sets are then compared with controls. About 2 hours following injection, the salmon are sacrificed, and the blood withdrawn for specific radioimmunoassay for LH level.", "note": "Where a SMILES comes first, the peptide text is derived from it. [ ]: non-standard residue; d: D form. pGlu = O=C1CC[C@@H](C(=O)O)N1"}
{"compound": "CCNC(=O)[C@@H]1CCCN1C(=O)[C@H](CC(C)C)NC(=O)[C@H](Cc1c[nH]c2ccccc12)NC(=O)[C@@H](C)NC(=O)[C@H](Cc1ccc(O)cc1)NC(=O)[C@H](CO)NC(=O)[C@H](Cc1c[nH]c2ccccc12)NC(=O)[C@H](Cc1c[nH]cn1)NC(=O)[C@@H]1CCC(=O)N1", "note": "[Peptide 1, pGlu--His--Trp--Ser--Tyr--D--Ala--Trp--Leu--Pro--NHCH2 CH3] ([pGlu]HWSY[dA]WLP-NHEt)", "values": [{"measurement": "potency in causing the release of LH by the anterior pituitary, compared with mammalian GnRH", "value": "substantially more potent than mammalian GnRH"}]}
